Data published in US10221177B2 (HYDRA BIOSCIENCES, INC., priority 2014, dated 2019).

Biological target: human TRPA1 (Homo sapiens (Human), UniProt O75762)
Test: In vitro inhibition of human TRPA1, whole cell patch configuration
Type: cell-based
Conditions: current activation 10 μM AITC, tested concentrations 320 pM to 3.2 μM, read-out: hTRPA1 IC50
Procedure: All currents were recorded in whole-cell configuration using EPC-9 and EPC-10 amplifiers and Patchmaster software (HEKA) or similar. […] The standard bath solution contained 150 mM NaCl, 10 mM HEPES, 10 mM glucose, 4.5 mM KCl, 1 mM EGTA, 3 mM MgCl2, with pH adjusted to 7.4 with NaOH. In some instances, 2 mM CaCl2 was added in place of EGTA and the concentration of MgCl2 was reduced to 1 mM.
Data were collected either by continuous recordings at −60 mV or by applying voltage ramps from a holding potential of −40 mV every 4 s. Continuous recordings were collected at 400 Hz and digitally filtered off-line at 10 Hz for presentation. Voltage ramps were applied from −100 mV or −80 mV to +100 mV or +80 mV over the course of 400 ms, and data were collected at 10 kHz and filtered at 2.9 kHz. Inward and outward currents were analyzed from the ramps at −80 and 80 mV, respectively. Liquid junction potential correction was not used.
Solutions were switched using a gravity-fed continuous focal perfusion system. To achieve rapid temperature changes, two temperature control, and perfusion systems were employed simultaneously. […] Temperatures were confirmed using a thermistor (Warner Instruments, TA-29), with temperatures at the recorded cell estimated to be within +/−2° C. of those reported.
The antagonist effects of compounds of Formula (I) against human TRPA1 (“hTRPA1”) in a whole cell patch configuration were evaluated using the in vitro assay described above.

Sequence of human TRPA1 (O75762 whole entry): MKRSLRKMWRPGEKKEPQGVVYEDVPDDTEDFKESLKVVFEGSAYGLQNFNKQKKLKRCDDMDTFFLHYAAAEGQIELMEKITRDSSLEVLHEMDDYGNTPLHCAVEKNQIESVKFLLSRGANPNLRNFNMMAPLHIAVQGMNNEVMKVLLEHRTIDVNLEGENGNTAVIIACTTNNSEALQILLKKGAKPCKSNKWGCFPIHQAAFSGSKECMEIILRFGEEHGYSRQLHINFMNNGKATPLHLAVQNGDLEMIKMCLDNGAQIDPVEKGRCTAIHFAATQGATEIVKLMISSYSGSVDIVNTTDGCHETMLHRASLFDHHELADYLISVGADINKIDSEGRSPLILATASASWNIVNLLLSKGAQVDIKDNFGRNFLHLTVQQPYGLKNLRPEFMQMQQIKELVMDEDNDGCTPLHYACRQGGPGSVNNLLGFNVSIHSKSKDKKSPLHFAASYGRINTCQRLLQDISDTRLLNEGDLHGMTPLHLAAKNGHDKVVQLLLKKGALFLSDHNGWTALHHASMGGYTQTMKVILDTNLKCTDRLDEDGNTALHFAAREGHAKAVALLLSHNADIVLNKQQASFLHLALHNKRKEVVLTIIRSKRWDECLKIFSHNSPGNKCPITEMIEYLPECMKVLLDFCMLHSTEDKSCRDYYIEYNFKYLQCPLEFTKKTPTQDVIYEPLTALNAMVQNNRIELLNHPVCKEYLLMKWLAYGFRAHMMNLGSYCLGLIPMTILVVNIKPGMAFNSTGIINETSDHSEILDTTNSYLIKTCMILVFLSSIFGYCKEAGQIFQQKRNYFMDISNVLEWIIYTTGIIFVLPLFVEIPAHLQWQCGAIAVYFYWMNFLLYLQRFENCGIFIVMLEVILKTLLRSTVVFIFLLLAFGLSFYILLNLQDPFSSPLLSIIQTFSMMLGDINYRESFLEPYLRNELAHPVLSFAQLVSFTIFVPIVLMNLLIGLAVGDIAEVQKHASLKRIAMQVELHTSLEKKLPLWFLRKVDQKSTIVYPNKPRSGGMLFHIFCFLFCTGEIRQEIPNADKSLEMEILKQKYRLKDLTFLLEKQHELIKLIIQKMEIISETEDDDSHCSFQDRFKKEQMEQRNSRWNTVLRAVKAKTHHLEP

Row | IC50 [nM] | SMILES
1 | 6 | C[C@@H](C(=O)Nc1cccc(-c2ccc(N3CC4CC4C3)nc2)n1)n1cnc2c1c(=O)n(CC#N)c(=O)n2C (stereo partly drawn) [Compound 35, (2S)—N-(6′-(3-azabicyclo[3.1.0]hexan-3-yl)-2,3′-bipyridin-6-yl)-2-(1-(cyanomethyl)-3-methyl-2,6-dioxo-2,3-dihydro-1H-purin-7(6H)-yl)]
2 | 2 | CCN(CC)c1ncc(-c2nc(NC(=O)[C@H](C)n3cnc4c3c(=O)n(Cc3cc(C)on3)c(=O)n4C)cs2)cn1 [Compound 36, (S)—N-(2-(2-(diethylamino)pyrimidin-5-yl)thiazol-4-yl)-2-(3-methyl-1-((5-methylisoxazol-3-yl)methyl)-2,6-dioxo-2,3-dihydro-1H-purin-7(6H)-yl)propanamide]
3 | 3 | CCC(=O)Cn1c(=O)c2c(ncn2[C@@H](C)C(=O)Nc2cccc(-c3ccc(N4CC5CC5C4)nc3)n2)n(C)c1=O (stereo partly drawn) [Compound 37, (2S)—N-(6′-(3-azabicyclo[3.1.0]hexan-3-yl)-2,3′-bipyridin-6-yl)-2-(3-methyl-2,6-dioxo-1-(2-oxobutyl)-2,3-dihydro-1H-purin-7(6H)-yl)propanamide]
4 | 3 | CCC(=O)Cn1c(=O)c2c(ncn2[C@@H](C)C(=O)Nc2csc(-c3cnc(N(CC)CC)nc3)n2)n(C)c1=O [Compound 38, (S)—N-(2-(2-(diethylamino)pyrimidin-5-yl)thiazol-4-yl)-2-(3-methyl-2,6-dioxo-1-(2-oxobutyl)-2,3-dihydro-1H-purin-7(6H)-yl)propanamide]
5 | 3 | C[C@@H](C(=O)Nc1cccc(-c2cnc(N3CCC[C@@H]3C(F)(F)F)nc2)n1)n1cnc2c1c(=O)n(CC#N)c(=O)n2C [Compound 39, (S)-2-(1-(cyanomethyl)-3-methyl-2,6-dioxo-2,3-dihydro-1H-purin-7(6H)-yl)-N-(6-(2-((R)-2-(trifluoromethyl)pyrrolidin-1-yl)pyrimidin-5-yl)pyridin-2-yl)propanamide]
6 | 8 | C[C@@H](C(=O)Nc1cncc(-c2cnc(N3CCC[C@@H]3C(F)(F)F)nc2)n1)n1cnc2c1c(=O)n(CC#N)c(=O)n2C [Compound 40, (S)-2-(1-(cyanomethyl)-3-methyl-2,6-dioxo-2,3-dihydro-1H-purin-7(6H)-yl)-N-(6-(2-((R)-2-(trifluoromethyl)pyrrolidin-1-yl)pyrimidin-5-yl)pyrazin-2-yl)propanamide]
7 | 12 | CC(=O)Cn1c(=O)c2c(ncn2[C@@H](C)C(=O)Nc2cncc(-c3ccc(N4CC5CC5C4)nc3)n2)n(C)c1=O (stereo partly drawn) [Compound 41, (2S)—N-(6-(6-(3-azabicyclo[3.1.0]hexan-3-yl)pyridin-3-yl)pyrazin-2-yl)-2-(3-methyl-2,6-dioxo-1-(2-oxopropyl)-2,3-dihydro-1H-purin-7(6H)-yl)propanamide]
8 | 4 | CCC(=O)Cn1c(=O)c2c(ncn2[C@@H](C)C(=O)Nc2cncc(-c3ccc(N4CC5CC5C4)nc3)n2)n(C)c1=O (stereo partly drawn) [Compound 42, (2S)—N-(6-(6-(3-azabicyclo[3.1.0]hexan-3-yl)pyridin-3-yl)pyrazin-2-yl)-2-(3-methyl-2,6-dioxo-1-(2-oxobutyl)-2,3-dihydro-1H-purin-7(6H)-yl)propanamide]
9 | 8 | C[C@@H](C(=O)Nc1cncc(-c2ccc(N3CC4CC4C3)nc2)n1)n1cnc2c1c(=O)n(CC#N)c(=O)n2C (stereo partly drawn) [Compound 43, (2S)—N-(6-(6-(3-azabicyclo[3.1.0]hexan-3-yl)pyridin-3-yl)pyrazin-2-yl)-2-(1-(cyanomethyl)-3-methyl-2,6-dioxo-2,3-dihydro-1H-purin-7(6H)-yl)propanamide]
10 | 14 | CC(=O)Cn1c(=O)c2c(ncn2[C@@H](C)C(=O)Nc2cccc(-c3ccc(N4CC5CC5C4)nc3)n2)n(C)c1=O (stereo partly drawn) [Compound 44, (2S)—N-(6′-(3-azabicyclo[3.1.0]hexan-3-yl)-2,3′-bipyridin-6-yl)-2-(3-methyl-2,6-dioxo-1-(2-oxopropyl)-2,3-dihydro-1H-purin-7(6H)-yl)propanamide]
11 | 4 | C[C@@H](C(=O)Nc1cccc(-c2cnc(N3CCC[C@H]3C(F)(F)F)nc2)n1)n1cnc2c1c(=O)n(CC#N)c(=O)n2C [Compound 45, (S)-2-(1-(cyanomethyl)-3-methyl-2,6-dioxo-2,3-dihydro-1H-purin-7(6H)-yl)-N-(6-(2-((S)-2-(trifluoromethyl)pyrrolidin-1-yl)pyrimidin-5-yl)pyridin-2-yl)propanamide]
12 | 22 | CC(=O)Cn1c(=O)c2c(ncn2[C@@H](C)C(=O)Nc2ccnc(-c3ccc(N4CC5CC5C4)nc3)n2)n(C)c1=O (stereo partly drawn) [Compound 46, (2S)—N-(2-(6-(3-azabicyclo[3.1.0]hexan-3-yl)pyridin-3-yl)pyrimidin-4-yl)-2-(3-methyl-2,6-dioxo-1-(2-oxopropyl)-2,3-dihydro-1H-purin-7(6H)-yl)propanamide]
13 | 4 | CCC(=O)Cn1c(=O)c2c(ncn2[C@@H](C)C(=O)Nc2ccnc(-c3ccc(N4CC5CC5C4)nc3)n2)n(C)c1=O (stereo partly drawn) [Compound 47, (2S)—N-(2-(6-(3-azabicyclo[3.1.0]hexan-3-yl)pyridin-3-yl)pyrimidin-4-yl)-2-(3-methyl-2,6-dioxo-1-(2-oxobutyl)-2,3-dihydro-1H-purin-7(6H)-yl)propanamide]
14 | 7 | C[C@@H](C(=O)Nc1cncc(-c2cnc(N3CCC[C@H]3C(F)(F)F)nc2)n1)n1cnc2c1c(=O)n(CC#N)c(=O)n2C [Compound 48, (S)-2-(1-(cyanomethyl)-3-methyl-2,6-dioxo-2,3-dihydro-1H-purin-7(6H)-yl)-N-(6-(2-((S)-2-(trifluoromethyl)pyrrolidin-1-yl)pyrimidin-5-yl)pyrazin-2-yl)propanamide]
15 | 7 | C[C@@H](C(=O)Nc1ccnc(-c2cnc(N3CCC[C@@H]3C(F)(F)F)nc2)n1)n1cnc2c1c(=O)n(CC#N)c(=O)n2C [Compound 49, (S)-2-(1-(cyanomethyl)-3-methyl-2,6-dioxo-2,3-dihydro-1H-purin-7(6H)-yl)-N-(2′-((R)-2-(trifluoromethyl)pyrrolidin-1-yl)-2,5′-bipyrimidin-4-yl)propanamide]
16 | 4 | C[C@@H](C(=O)Nc1csc(-c2cnc(N3CCC[C@@H]3C(F)(F)F)nc2)n1)n1cnc2c1c(=O)n(CC#N)c(=O)n2C [Compound 50]
17 | > 3200 | C[C@@H](C(=O)Nc1cccc(-c2cnc(C(F)(F)F)nc2)n1)n1cnc2c1c(=O)n(CC1COC1)c(=O)n2C [Compound 51, (S)-2-(3-methyl-1-(oxetan-3-ylmethyl)-2,6-dioxo-2,3-dihydro-1H-purin-7(6H)-yl)-N-(6-(2-(trifluoromethyl)pyrimidin-5-yl)pyridin-2-yl)propanamide]
18 | 23 | CCCC(=O)Cn1c(=O)c2c(ncn2[C@@H](C)C(=O)Nc2cccc(-c3cnc(C(F)(F)F)nc3)n2)n(C)c1=O [Compound 52, (S)-2-(3-methyl-2,6-dioxo-1-(2-oxopentyl)-2,3-dihydro-1H-purin-7(6H)-yl)-N-(6-(2-(trifluoromethyl)pyrimidin-5-yl)pyridin-2-yl)propanamide]
19 | 14 | C[C@@H](C(=O)Nc1ccnc(-c2ccc(N3CC4CC4C3)nc2)n1)n1cnc2c1c(=O)n(CC#N)c(=O)n2C (stereo partly drawn) [Compound 53, (2S)—N-(2-(6-(3-azabicyclo[3.1.0]hexan-3-yl)pyridin-3-yl)pyrimidin-4-yl)-2-(1-(cyanomethyl)-3-methyl-2,6-dioxo-2,3-dihydro-1H-purin-7(6H)-yl)propanamide]
20 | 7 | C[C@@H](C(=O)Nc1ccnc(-c2cnc(N3CCC[C@H]3C(F)(F)F)nc2)n1)n1cnc2c1c(=O)n(CC#N)c(=O)n2C [Compound 54, (S)-2-(1-(cyanomethyl)-3-methyl-2,6-dioxo-2,3-dihydro-1H-purin-7(6H)-yl)-N-(2′-((S)-2-(trifluoromethyl)pyrrolidin-1-yl)-2,5′-bipyrimidin-4-yl)propanamide]
21 | 5 | Cc1cc(Cn2c(=O)c3c(ncn3[C@@H](C)C(=O)Nc3cncc(-c4cncc(C(F)(F)F)c4)n3)n(C)c2=O)no1 [Compound 55, (S)-2-(3-methyl-1-((5-methylisoxazol-3-yl)methyl)-2,6-dioxo-2,3-dihydro-1H-purin-7(6H)-yl)-N-(6-(5-(trifluoromethyl)pyridin-3-yl)pyrazin-2-yl)propanamide]
22 | 3 | CC(=O)Cn1c(=O)c2c(ncn2[C@@H](C)C(=O)Nc2csc(-c3cnc(N4CC5C(C4)C5(F)F)nc3)n2)n(C)c1=O (stereo partly drawn) [Compound 56, (2S)—N-(2-(2-(6,6-difluoro-3-azabicyclo[3.1.0]hexan-3-yl)pyrimidin-5-yl)thiazol-4-yl)-2-(3-methyl-2,6-dioxo-1-(2-oxopropyl)-2,3-dihydro-1H-purin-7(6H)-yl)propanamide]
23 | 2 | CCC(=O)Cn1c(=O)c2c(ncn2[C@@H](C)C(=O)Nc2csc(-c3cnc(N4CC5C(C4)C5(F)F)nc3)n2)n(C)c1=O (stereo partly drawn) [Compound 57, (2S)—N-(2-(2-(6,6-difluoro-3-azabicyclo[3.1.0]hexan-3-yl)pyrimidin-5-yl)thiazol-4-yl)-2-(3-methyl-2,6-dioxo-1-(2-oxobutyl)-2,3-dihydro-1H-purin-7(6H)-yl)propanamide]
